From publication PMC5816668, “Insights into the inhibitory mechanisms of NADH on the αγ heterodimer of human NAD-dependent isocitrate dehydrogenase” (Scientific Reports, 2018)
Where two headings read alike, the source gives them in different places.

What was measured:
[1] = molecular target: T1, αγ heterodimer of human NAD-IDH (Homo sapiens, UniProt P50213+P51553); experiment: NADH formation at […] nm; format: biochemical
T1 construct: gene IDH3A; E. coli BL21(DE3) Codon-Plus co-expression from pQlinkN-α-γ-tev-His6; C-terminal His6 of gamma cut with TEV protease; alpha 37 kDa, gamma 39 kDa; heterodimer
T1 sequence (P50213 28-366): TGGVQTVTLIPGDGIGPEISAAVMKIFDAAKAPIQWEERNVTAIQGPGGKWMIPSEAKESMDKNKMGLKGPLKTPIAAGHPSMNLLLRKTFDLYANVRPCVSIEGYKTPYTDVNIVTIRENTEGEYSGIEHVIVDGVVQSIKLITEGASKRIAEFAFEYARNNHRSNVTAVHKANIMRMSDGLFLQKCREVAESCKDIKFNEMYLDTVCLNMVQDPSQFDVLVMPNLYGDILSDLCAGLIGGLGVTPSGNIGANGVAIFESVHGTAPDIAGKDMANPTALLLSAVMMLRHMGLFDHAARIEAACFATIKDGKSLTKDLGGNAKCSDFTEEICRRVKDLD
T1 sequence (P51553 40-393): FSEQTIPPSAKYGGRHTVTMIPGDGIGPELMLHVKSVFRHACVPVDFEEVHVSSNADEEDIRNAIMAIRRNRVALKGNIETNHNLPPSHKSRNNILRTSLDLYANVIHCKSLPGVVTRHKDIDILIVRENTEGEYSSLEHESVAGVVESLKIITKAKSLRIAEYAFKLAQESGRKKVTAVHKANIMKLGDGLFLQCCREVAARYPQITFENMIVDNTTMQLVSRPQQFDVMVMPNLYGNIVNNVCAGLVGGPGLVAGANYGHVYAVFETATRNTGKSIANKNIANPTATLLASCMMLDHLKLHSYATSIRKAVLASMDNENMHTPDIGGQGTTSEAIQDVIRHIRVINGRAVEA

[2] = molecular target: T2, αβ heterodimer of human NAD-IDH (Homo sapiens, UniProt P50213); experiment: ITC; format: binding; details: 50 mM HEPES pH 7.4, 200 mM NaCl, 20 °C, read-out: K d (μ M) ^a
T2 construct: gene IDH3A; alpha 37 kDa, beta 39 kDa; heterodimer
Description: ITC on αβ heterodimer of human NAD-IDH

[3] = molecular target: T1, αγ heterodimer of human NAD-IDH; experiment: ITC; format: binding; details: read-out: K d (μ M) ^a
Description: ITC on αγ heterodimer of human NAD-IDH

[4] = molecular target: T3, α2βγ heterotetramer of human NAD-IDH (Homo sapiens, UniProt P50213+P51553); experiment: NADH formation at […] nm; format: biochemical; details: 33 mM Tris-acetate pH 7.4, 2 mM MnCl2, 20 mM DL-isocitrate, 1 mM NAD+, 25 °C
T3 construct: gene IDH3A; alpha 37 kDa, beta 39 kDa, gamma 39 kDa

[5] = molecular target: T2, αβ heterodimer of human NAD-IDH; experiment: NADH formation at […] nm; format: biochemical; details: 33 mM Tris-acetate pH 7.4, 20 mM DL-isocitrate, 1 mM NAD+, 25 °C
[6] = molecular target: T3, α2βγ heterotetramer of human NAD-IDH; experiment: ITC; format: binding; details: 50 mM HEPES pH 7.4, 200 mM NaCl, 20 °C; single set of sites fit, n 2.53; read-out: K d (μ M) ^a
Description: ITC on α2βγ heterotetramer of human NAD-IDH

T2 sequence (O43837 35-385 partner, one chain of several): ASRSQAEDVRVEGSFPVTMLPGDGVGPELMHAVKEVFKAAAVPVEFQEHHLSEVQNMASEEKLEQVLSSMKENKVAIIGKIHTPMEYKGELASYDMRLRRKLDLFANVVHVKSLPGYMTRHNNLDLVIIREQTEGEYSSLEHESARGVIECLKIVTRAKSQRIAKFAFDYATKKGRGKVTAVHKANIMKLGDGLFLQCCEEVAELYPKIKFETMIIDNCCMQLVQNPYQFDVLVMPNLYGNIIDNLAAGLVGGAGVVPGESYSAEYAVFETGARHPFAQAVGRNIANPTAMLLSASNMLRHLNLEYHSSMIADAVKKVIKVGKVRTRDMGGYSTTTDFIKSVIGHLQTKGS
T3 sequence (O43837 35-385 partner, one chain of several): as above

Row | Compound | IC50 [1] [µM] | Kd ([2]; single set of sites fit, n 1.26) [µM] | Kd [3] [µM] | IC50 [4] [µM] | IC50 [5] [µM] | Kd [6] [µM] | Kd ([2]; no isocitrate, n 1.14) [µM]
1 | NC(=O)C1=CN([C@@H]2O[C@H](COP(=O)(O)OP(=O)(O)OC[C@H]3O[C@@H](n4cnc5c(N)ncnc54)[C@H](O)[C@@H]3O)[C@@H](O)[C@H]2O)C=CC1 [NADH] | 82.7 ± 6 | 4.6 ± 0.7 | 109 ± 19.5 | 78.5 ± 5.4 | 94.9 ± 7.8 | 46.3 ± 6.5 | 
2 | NC(=O)c1ccc[n+]([C@@H]2O[C@H](COP(=O)(O)OP(=O)(O)OC[C@H]3O[C@@H](n4cnc5c(N)ncnc54)[C@H](O)[C@@H]3O)[C@@H](O)[C@H]2O)c1 [NAD^+] |  |  |  |  |  |  | 268 ± 28.4
